Reference: PubChem BioAssay AID1845217 (Molecular Pharmacology Branch, DTP, NCI, 2023)
“And” between values parts separate entries of the source, which are not always exact repeats. Equal values may be shown once. The source made the active and inactive calls. Rule for the calls: active = viability on the fitted dose curve at most 10% of control; inactive = the rest.

Tested on: VA-ES-BJ tumor spheroid viability
Test: Anticancer human tumor VA-ES-BJ cell line growth inhibition;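 for IC50: spheroids exposed to compounds for seven days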;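 for viability, T/C: spheroids exposed to compounds for seven days; percent of DMSO vehicle control viability so 100% = untreated growth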
Details: spheroids with HUVEC and MSC; for viability, T/C: stronger effect = lower value
From the text: Multicellular complex tumor spheroid response to DNA repair inhibitors in combination with DNA-damaging drugs
This study explores the anticancer activities of DNA-damaging drugs and inhibitors of DNA damage repair, both as single agents and in combinations. Complex tumor spheroids comprised of malignant cells, endothelial cells and mesenchymal stem cells served as an in vitro model for human solid tumors. This model system incorporates physiologically relevant features and patient-derived or established malignant cell lines with clinically relevant genetic alterations from many tumor types. Twenty-six patient-derived or established malignant cell lines were evaluated representing sarcoma, melanoma, small cell lung cancer (SCLC), non-small cell lung cancer (NSCLC), as well as bladder, ovarian and pancreatic cancers. The concentration ranges selected for each drug and investigational agent were based upon clinically achievable concentrations if the clinical Cmax of the agent was known.
Compounds. The drugs and compounds olaparib (NSC753686), talazoparib (NSC767125), berzosertib (NSC777718), elimusertib (NSC800525), nedisertib (NSC802822), VX-984 (NSC792969), AZD-1390 (NSC803789), temozolomide (NSC362856), topotecan (NSC609699), trabectedin (NSC813783), staurosporine (NSC755774), and gemcitabine (NSC613327) were obtained from the National Cancer Institute (NCI) Developmental Therapeutics Program Chemical Repository. The FDA-approved anticancer drug set is available from the Developmental Therapeutics Program at https://dtp.cancer.gov/organization/dscb/obtaining/available_plates.htm. […] The stock solutions were prepared in dimethyl sulfoxide (DMSO, Sigma-Aldrich, St. Louis, MO, cat. D2650) at 400-fold the tested concentration and stored at -70 degrees C. Prior to their use, the stock solutions were diluted in fresh medium and the final DMSO concentration in the assay was 0.25% (v/v). All drugs and investigational agents were tested over a range starting from a high concentration at or near the clinical Cmax and decreasing in half-log increments. If the clinical Cmax for an agent had not been determined, the highest concentration tested was 10 microM.
Cell Lines. The patient-derived cancer cell (PDC) lines: 156681-154-R-J1-PDC, 283228-195-R-J1-PDC, 287954-098-R-J1-PDC, 292921-168-R-J2-PDC, 349418-098-R-PDC, 425362-245-T-J1-PDC, 556581-035-R-J1-PDC, and BL0293-F563-PDC were received from the NCI Patient-Derived Models Repository (PDMR, https://pdmr.cancer.gov). The established cell lines HS-SY-2 (RRID:CVCL_8719), MPNST, and SYO-1 (RRID:CVCL_7146) were obtained from the Sloan Kettering Institute. The alveolar soft parts sarcoma cell line ASPS-1 (RRID:CVCL_S738) was established at the NCI and grown from internal seed stocks. The following established cell lines were purchased from the American Type Culture Collection (ATCC, Manassas, VA): G-401 (ATCC, cat. CRL-1441, RRID:CVCL_0270), SW982 (ATCC, cat. HTB-93, RRID:CVCL_1734), VA-ES-BJ (ATCC, cat. CRL-2138, RRID:CVCL_1785), NCI-H719 (ATCC, cat. CRL-5837, RRID:CVCL_1582), NCI-H196 (ATCC, cat. CRL-5823, RRID:CVCL_1509), NCI-H841 (ATCC, cat. CRL-5845, RRID:CVCL_1595), NCI-H1618 (ATCC, cat. CRL-5879, RRID:CVCL_1480), NCI-H1876 (ATCC, cat. CRL-5902, RRID:CVCL_1503), DMS 114 (ATCC, cat. CRL-2066; RRID:CVCL_1174), NCI-H211 (ATCC, cat. CRL-5824; RRID:CVCL_1529), and SW 1271 (ATCC, cat. CRL-2177, RRID:CVCL_1716). The small cell lung cancer cell line COR-L88 was purchased from Sigma-Aldrich (cat. 92031917-1VL, RRID:CVCL_1141). The non-small cell lung cancer cell lines NCI-H226 (RRID:CVCL_1544) and NCI-H322M (RRID:CVCL_1557) were established at the NCI and grown from internal seed stocks. Pooled donor human umbilical vein endothelial cells (HUVEC, Lonza, cat. CC-2519) and human mesenchymal stem cells (hMSC, Lonza, cat. PT-2501) were purchased from Lonza (Walkersville, MD).
Cell Culture. All cells were maintained in an incubator at 37 degrees C and 5% CO2 with 95% humidity. […]

[1] = compound alone, run of 12/02/2019
[2] = compound alone, run of 12/12/2019

What does the source list for CC(C)n1c(=O)n(C)c2cnc3cc(F)c(-c4ccc(OCCCN5CCCCC5)nc4)cc3c21?
viability, T/C (compound 0.0316 µM): 77.7% and 93.7% and 97.1%; viability, T/C (compound 0.1 µM): 74.2% and 93.9% and 95.2%; viability, T/C (compound 0.316 µM): 73.1% and 90.5% and 92.7%; viability, T/C (compound 1 µM): 85.2% and 100% and 99%; viability, T/C (compound 3.16 µM): 91.6% and 105% (2×); viability, T/C (compound 10 µM): 59.8% and 65.4% and 71.2%; IC50 (curve of compound): > 10000 nM

What does the source list for CC1COCCN1c1cc(-c2ccnn2C)c2ccnc(-c3ccn[nH]3)c2n1 (stereo not drawn)?
viability, T/C (compound 0.0316 µM): 9.71% and 87.1% and 84.4%; viability, T/C (compound 0.316 µM): 9.14% and 23.2% and 30.3%; viability, T/C (compound 1 µM): 5.45% and 9.1% and 11%; viability, T/C (compound 3.16 µM): 5.18% and 6.34% and 6.93%; viability, T/C (compound 10 µM): 4.89% and 6.26% and 6.35%; IC50 (curve of compound): < 31.6 nM and 110 nM and 153 nM

Which results are given for CC[C@@]1(O)C(=O)OCc2c1cc1n(c2=O)Cc2cc3c(CN(C)C)c(O)ccc3nc2-1?
viability, T/C (compound 0.003 µM): 94% [middle of 10 runs]; viability, T/C (compound 0.0949 µM): 7.65% [middle of 10 runs]; viability, T/C (compound 0.3 µM): 5.65% [middle of 10 runs]; IC50 [1]: 21.8 nM [middle of 5 runs]; IC50 [2]: 28.5 nM [middle of 5 runs]

What does the source list for CNCc1ccc(-c2cc(-c3nc(-c4ccc(S(=O)(=O)C(C)C)cc4)cnc3N)on2)cc1?
viability, T/C (compound 0.00949 µM): 77.7% and 86.1% and 87.9%; viability, T/C (compound 0.03 µM): 77.8% and 85% and 86.1%; viability, T/C (compound 0.0949 µM): 76% and 74.3% and 83%; viability, T/C (compound 0.3 µM): 48.9% and 63.3% and 41%; viability, T/C (compound 0.949 µM): 9.28% and 11.6% and 7.52%; viability, T/C (compound 3 µM): 2.21% and 6.18% and 1.41%; IC50 (curve of compound): 289 nM and 399 nM and 235 nM

Which viability, T/C (compound 0.0316 µM) does the source give for COc1cc(C)[nH]c(=O)c1CN1CCc2c(Cl)cc(C(OC)C3COC3)c(Cl)c2C1=O (stereo not drawn) here?
Its viability, T/C is 90.1% and 94.4%.

What about the outcome (compound 0.0316 µM) of the same compound?
The outcome was “inactive”.

And the viability, T/C (compound 0.1 µM)?
Its viability, T/C is 60.6% and 79.6% and 86.1%.

And the viability, T/C (compound 0.316 µM)?
Its viability, T/C is 62.8% and 67% and 69.9%.

And the viability, T/C (compound 1 µM)?
Its viability, T/C is 50.1% and 56.3% and 63.1%.

And the viability, T/C (compound 3.16 µM)?
The viability, T/C was 44.1% and 54.4% and 58.9%.

What about the viability, T/C (compound 10 µM) of the same compound?
The viability, T/C was 41.7% and 49.4% and 52.7%.

And the IC50 (curve of compound)?
Its IC50 is 1550 nM and > 10000 nM.

For COc1cc2c(cc1O)CCNC21CSC2c3c(OC(C)=O)c(C)c4c(c3C(COC1=O)N1C(O)C3Cc5cc(C)c(OC)c(O)c5C(C21)N3C)OCO4 (stereo not drawn), which viability, T/C (compound 0.000949 µM) is on record?
Its viability, T/C is 2.96% [middle of 10 runs].

What about the viability, T/C (compound 0.003 µM) of the same compound?
Its viability, T/C is 1.18% [middle of 9 runs].

And the IC50 [2]?
Its IC50 is 0.256 nM [middle of 10 runs].

Which results are given for COc1ccc([C@@H](O)c2cc(-c3ncnc4cc(N5CCOCC5)ccc34)c(F)cc2Cl)nn1?
viability, T/C (compound 0.0316 µM): 99.7% and 97.1% and 92.4%; viability, T/C (compound 0.1 µM): 113% and 95.6% and 88.6%; viability, T/C (compound 0.316 µM): 71.4% and 65.5% and 79.8%; viability, T/C (compound 1 µM): 45.9% and 32.2% and 52%; viability, T/C (compound 3.16 µM): 17.3% and 11.2% and 21.3%; viability, T/C (compound 10 µM): 10.2% and 6.84% and 8.9%; IC50 (curve of compound): 780 nM and 549 nM and 1080 nM

With Cc1cc(C)c(CNC(=O)c2cc(-c3ccc(CN4CCOCC4)cc3)cc3c2cnn3C2CCCC2)c(=O)[nH]1 as the compound, how does the viability, T/C (compound 0.0316 µM) read?
Its viability, T/C is 101% and 98% and 103%.

What about the viability, T/C (compound 0.1 µM) of the same compound?
The viability, T/C was 100% and 106% and 101%.

What about the viability, T/C (compound 0.316 µM) of the same compound?
Its viability, T/C is 98.5% and 97.2% and 99.1%.

And the viability, T/C (compound 1 µM)?
Its viability, T/C is 103% (2×) and 100%.

What about the viability, T/C (compound 3.16 µM) of the same compound?
The viability, T/C was 102% and 107% and 112%.

And the viability, T/C (compound 10 µM)?
Its viability, T/C is 91.8% and 91.9% and 104%.

And the IC50 (curve of compound)?
The IC50 was over 10000 nM.

How did the viability, T/C (compound 0.00949 µM) turn out when Cc1sc2c(c1C)C(c1ccc(Cl)cc1)=NC(CC(=O)Nc1ccc(O)cc1)c1nnc(C)n1-2 (stereo not drawn) was run?
The viability, T/C was 72.1% and 86.4% and 77.2%.

What about the viability, T/C (compound 0.03 µM) of the same compound?
The viability, T/C was 66.8% and 59.2% and 64.1%.

What about the viability, T/C (compound 0.0949 µM) of the same compound?
Its viability, T/C is 47.3% and 45% and 46.2%.

And the viability, T/C (compound 0.3 µM)?
Its viability, T/C is 30.5% and 32.6% and 28.8%.

And the viability, T/C (compound 0.949 µM)?
Its viability, T/C is 25.7% and 24.2% and 20.7%.

And the viability, T/C (compound 3 µM)?
The viability, T/C was 18.6% and 22.5% and 15.8%.

And the IC50 (curve of compound)?
The IC50 was 84.1 nM and 60.9 nM and 73.1 nM.

With Cn1ncnc1[C@H]1c2n[nH]c(=O)c3cc(F)cc(c23)N[C@@H]1c1ccc(F)cc1 as the compound, how does the viability, T/C (compound 0.00949 µM) read?
Its viability, T/C is 82.2% and 101% and 87.7%.

And the viability, T/C (compound 0.03 µM)?
The viability, T/C was 81.7% and 78.2% and 85.3%.

And the viability, T/C (compound 0.0949 µM)?
Its viability, T/C is 68.5% and 82.6% and 74.7%.

What about the viability, T/C (compound 0.3 µM) of the same compound?
Its viability, T/C is 55.8% and 65.9% and 58.5%.

And the viability, T/C (compound 0.949 µM)?
Its viability, T/C is 33.7% and 41.4% and 36%.

And the viability, T/C (compound 3 µM)?
Its viability, T/C is 7.23% and 7.48% and 6.56%.

What about the IC50 (curve of compound) of the same compound?
Its IC50 is 400 nM and 619 nM and 469 nM.

Which viability, T/C (compound 1 µM) does the source give for Cn1nnc2c(C(N)=O)ncn2c1=O here?
Its viability, T/C is 104% [middle of 10 runs].

And the viability, T/C (compound 3.16 µM)?
The viability, T/C was 103% [middle of 10 runs].

What about the viability, T/C (compound 10 µM) of the same compound?
The viability, T/C was 107% [middle of 10 runs].

And the viability, T/C (compound 100 µM)?
The viability, T/C was 104% [middle of 10 runs].

What about the IC50 [1] of the same compound?
The IC50 was over 100000 nM.

What does the source list for O=C(c1cc(Cc2n[nH]c(=O)c3ccccc23)ccc1F)N1CCN(C(=O)C2CC2)CC1?
viability, T/C (compound 0.0949 µM): 113% and 96.3% and 94.1%; viability, T/C (compound 0.3 µM): 98.4% and 84.9% and 93.2%; viability, T/C (compound 0.949 µM): 101% and 89.1% and 92.5%; viability, T/C (compound 3 µM): 98.7% and 88% and 87%; viability, T/C (compound 9.49 µM): 74.6% and 71.3% and 67.4%; viability, T/C (compound 30 µM): 67.4% and 52.5% and 47.3%; IC50 (curve of compound): > 30000 nM and 25800 nM

For [2H]c1nc(C)nc([2H])c1-c1cc(NC[C@@H](C)c2cccc3c(C(=O)NC)ccnc23)ncn1, which viability, T/C (compound 0.0316 µM) is on record?
The viability, T/C was 70.8% and 104% and 89.9%.

What about the viability, T/C (compound 0.1 µM) of the same compound?
The viability, T/C was 77.2% and 94.7% and 88.6%.

And the viability, T/C (compound 0.316 µM)?
Its viability, T/C is 80% and 92.6% and 90.8%.

What about the viability, T/C (compound 1 µM) of the same compound?
Its viability, T/C is 79.4% and 104% and 99.8%.

What about the viability, T/C (compound 3.16 µM) of the same compound?
Its viability, T/C is 86.9% and 95.6% and 103%.

What about the viability, T/C (compound 10 µM) of the same compound?
Its viability, T/C is 83.2% and 99.6% and 104%.

And the IC50 (curve of compound)?
Its IC50 is over 10000 nM.
